Assay results reported in patent US20240059691A1 (KALVISTA PHARMACEUTICALS LIMITED, priority 2020, published 2024).

What follows are molecules tested against Human Factor XIIa (Homo sapiens (Human), UniProt P00748) (assay: Determination of FXIIa inhibition (fluorogenic substrate H-DPro-Phe-Arg-AFC, IC50 assay)). Conditions: substrate H-DPro-Phe-Arg-AFC at Km, 25° C.; class scale A-G.
Type: biochemical
Summary of the method: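 Human FXIIa incubated at 25° C with fluorogenic substrate H-DPro-Phe-Arg-AFC at its Km concentration and varying compound concentrations. Fluorescence release monitored over 5 min at 25° C; linear rate expressed as % of uninhibited activity to derive IC50.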

Sequence of Human Factor XIIa (P00748 373-615): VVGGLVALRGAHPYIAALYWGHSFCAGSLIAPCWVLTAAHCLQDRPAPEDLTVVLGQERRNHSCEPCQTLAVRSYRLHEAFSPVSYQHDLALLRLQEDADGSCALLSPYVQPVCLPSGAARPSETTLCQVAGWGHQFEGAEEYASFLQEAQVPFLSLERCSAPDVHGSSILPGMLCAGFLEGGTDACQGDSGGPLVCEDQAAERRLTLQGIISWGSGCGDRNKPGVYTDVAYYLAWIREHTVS

First: CN(Cc1ccc(N2CCn3c(nnc3C(F)(F)F)C2)nc1)c1cccc2c(N)nccc12 [Example 1332, N5-methyl-N5-((6-(3-(trifluoromethyl)-5,6-dihydro-[1,2,4]triazolo[4,3-a]pyrazin-7(8H)-yl)pyridin-3-yl)methyl)isoquinoline-1,5-diamine]
Second: COCC1c2nnc(C(F)(F)F)n2CCN1c1cc(C)c(CNc2cccc3c(N)nccc23)cn1 (single isomer, unassigned) [Example 1344, (R*)-N5-((6-(8-(methoxymethyl)-3-(trifluoromethyl)-5,6-dihydro-[1,2,4]triazolo[4,3-a]pyrazin-7(8H)-yl)-4-methylpyridin-3-yl)methyl)isoquinoline-1,5-diamine]
The IC50 of the first is higher: 3 to 10 µM for the first, 0.01 to 0.1 µM for the second.

Compared with `CN1CCC(COc2cc(CNc3cccc4c(N)nccc34)ccn2)CC1=O` (stereo not shown) [Example 4417, 4-{[(4-{[(1-aminoisoquinolin-5-yl)amino]methyl}pyridin-2-yl)oxy]methyl}-1-methylpiperidin-2-one], `CN1CCC(COc2cc(CN(C)c3cccc4c(N)nccc34)ccn2)CC1` [Example 4419, N5-methyl-N5-((2-((1-methylpiperidin-4-yl)methoxy)pyridin-4-yl)methyl)isoquinoline-1,5-diamine] is higher in IC50: 0.3 to 1 µM for the first, 3 to 10 µM for the second. The first is the more potent here.

Compared with `CN1CCC(COc2ccc(CNc3ccc4c(N)ncnc4c3)cn2)CC1` [Example 1021, N7-((6-((1-methylpiperidin-4-yl)methoxy)pyridin-3-yl)methyl)quinazoline-4,7-diamine], `Nc1nccc2cc(NCc3ccc(OCC4CCn5ccnc5C4)nc3)ccc12` (single isomer, unassigned) [Example 1023, 6-N-({6-[(7R*)-5H,6H,7H,8H-imidazo[1,2-a]pyridin-7-ylmethoxy]pyridin-3-yl}methyl)isoquinoline-1,6-diamine] is lower in IC50: 10 to 40 µM for the first, 0.1 to 0.3 µM for the second.

Compared with `Nc1ncc(Cl)c2cc(NCc3ccc(OCC4CCn5ccnc5C4)nc3)ccc12` (stereo not shown) [Example 1041, 4-Chloro-N6-[[6-(5,6,7,8-tetrahydroimidazo[1,2-a]pyridin-7-ylmethoxy)-3-pyridyl]methyl]isoquinoline-1,6-diamine], `Nc1nccc2cc(NCc3ccc(OCCCn4ccnc4)nc3)ccc12` [Example 1031, 6-N-({6-[3-(imidazol-1-yl)propoxy]pyridin-3-yl}methyl)isoquinoline-1,6-diamine] is higher in IC50: 0.3 to 1 µM for the first, 1 to 3 µM for the second.

First: CC(=O)N1CCC(OCc2ccc(CNc3ccc4c(N)nccc4c3)c(F)c2)CC1 [Example 2200, 1-(4-((4-(((1-aminoisoquinolin-6-yl)amino)methyl)-3-fluorobenzyl)oxy)piperidin-1-yl)ethan-1-one]
Second: CN1CCC(OCc2ccc(CNc3ccc4c(N)nccc4c3)c(F)c2)CC12COC2 (stereo not shown) [Example 2205, 6-N-({2-fluoro-4-[({5-methyl-2-oxa-5-azaspiro[3.5]nonan-8-yl}oxy)methyl]phenyl}methyl)isoquinoline-1,6-diamine]
The IC50 of the first is lower: 0.3 to 1 µM for the first, 1 to 3 µM for the second.

Each molecule was assayed against Plasma Kallikrein (Homo sapiens (Human), UniProt P03952) (assay: Determination of related protease inhibition: Plasma Kallikrein (fluorogenic substrate at Km)). Conditions: 25° C., read-out: IC50 (human PKal).
Type: biochemical
Experimental: Determination of Related Protease Inhibition
In vitro inhibition of related proteases was determined using an ([…] assay based on standard literature methods (see e.g. Shori et al., Biochem. Pharmacol., 1992, 43, 1209; Bouckaert et al., European Journal of Medicinal Chemistry 110 (2016) 181). Human serine protease enzymes Plasma Kallikrein, KLK1, FXa, Plasmin, Thrombin and Trypsin were assayed for enzymatic activity using an appropriate fluorogenic substrate at Km concentration, FXIa at fixed substrate concentration of 100 μM, and various concentrations of the test compound. Protease activity was measured by monitoring the accumulation of liberated fluorescence from the substrate over […]. The linear rate of fluorescence increase per minute was expressed as percentage (%) activity. IC50 values were calculated as the concentration of inhibitor giving 50% inhibition of the uninhibited enzyme activity (100%).

Sequence of Plasma Kallikrein (P03952 391-638): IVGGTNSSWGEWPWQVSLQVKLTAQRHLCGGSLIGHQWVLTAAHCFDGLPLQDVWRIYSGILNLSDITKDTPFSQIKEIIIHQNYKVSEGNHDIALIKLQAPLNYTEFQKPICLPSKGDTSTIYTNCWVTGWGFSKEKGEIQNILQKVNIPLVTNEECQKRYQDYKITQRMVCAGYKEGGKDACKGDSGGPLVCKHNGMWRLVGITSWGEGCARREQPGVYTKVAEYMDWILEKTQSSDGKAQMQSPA
Sequence of Plasma Kallikrein (P03952 20-390 partner): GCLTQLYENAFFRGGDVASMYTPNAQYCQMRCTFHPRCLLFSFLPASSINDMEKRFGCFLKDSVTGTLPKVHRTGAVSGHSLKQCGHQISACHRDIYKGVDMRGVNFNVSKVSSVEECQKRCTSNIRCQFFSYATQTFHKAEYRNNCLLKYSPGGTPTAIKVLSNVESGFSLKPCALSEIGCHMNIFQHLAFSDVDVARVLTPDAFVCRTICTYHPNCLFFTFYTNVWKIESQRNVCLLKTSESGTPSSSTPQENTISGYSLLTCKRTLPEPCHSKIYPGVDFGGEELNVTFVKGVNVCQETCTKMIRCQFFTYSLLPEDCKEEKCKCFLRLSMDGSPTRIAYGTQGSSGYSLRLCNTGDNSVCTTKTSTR

`COc1cccc2sc(NCc3ccc(NCC4CCN(C)CC4)nc3)nc12` [Example 1200, 4-methoxy-N-((6-(((1-methylpiperidin-4-yl)methyl)amino)pyridin-3-yl)methyl)benzo[d]thiazol-2-amine] and `COc1cccc2ccc(NCc3ccc(NCC4CCN(C)CC4)nc3)cc12` [Example 1178, 5-(((8-methoxynaphthalen-2-yl)amino)methyl)-N-((1-methylpiperidin-4-yl)methyl)pyridin-2-amine] cannot be ordered by IC50: > 100 µM for the first, > 100 µM for the second.

`CN1CCC(CNc2ccc(CNc3ccnc4[nH]ncc34)cn2)CC1` [Example 1218, N-((6-(((1-methylpiperidin-4-yl)methyl)amino)pyridin-3-yl)methyl)-1H-pyrazolo[3,4-b]pyridin-4-amine] and `CN1CCC(CNc2ccc(CNc3ccnc4[nH]c(C(=O)O)cc34)cn2)CC1` [Example 1253, 4-(((6-(((1-methylpiperidin-4-yl)methyl)amino)pyridin-3-yl)methyl)amino)-1H-pyrrolo [2,3-b]pyridine-2-carboxylic acid] cannot be ordered by IC50: > 100 µM for the first, > 40 µM for the second.

`Cc1nnc(-c2ccc(NCc3ccnc(OCC4CCN(C)CC4)c3)cc2)o1` [Example 4457, 4-(5-methyl-1,3,4-oxadiazol-2-yl)-N-((2-((1-methylpiperidin-4-yl)methoxy)pyridin-4-yl)methyl)aniline] and `CN1CCC(COc2cc(CNc3ccc(N(C)C)nn3)ccn2)CC1` [Example 4458, N3,N3-dimethyl-N6-((2-((1-methylpiperidin-4-yl)methoxy)pyridin-4-yl)methyl)pyridazine-3,6-diamine] cannot be ordered by IC50: > 100 µM for the first, > 100 µM for the second.

`CN1CCC(CNc2ccc(CNc3ccc4[nH]cnc4c3F)cn2)CC1` [Example 1191, 4-fluoro-N-((6-(((1-methylpiperidin-4-yl)methyl)amino)pyridin-3-yl)methyl)-1H-benzo[d]imidazol-5-amine] and `CN1CCC(CNc2ccc(CNc3ccc(F)c4cnccc34)cn2)CC1` [Example 1214, 8-fluoro-N-((6-(((1-methylpiperidin-4-yl)methyl)amino)pyridin-3-yl)methyl)isoquinolin-5-amine] cannot be ordered by IC50: > 100 µM for the first, > 100 µM for the second.

`CN1CCC(CNc2ccc(CNc3ccc4cncc(N5CCC(F)(F)C5)c4c3)cn2)CC1` [Example 1260, 4-(3,3-difluoropyrrolidin-1-yl)-N-((6-(((1-methylpiperidin-4-yl)methyl)amino)pyridin-3-yl)methyl)isoquinolin-6-amine] and `COc1ccc2cc(NCc3ccc(NCC4CCN(C)CC4)nc3)ccc2c1` [Example 1180, 5-(((6-methoxynaphthalen-2-yl)amino)methyl)-N-((1-methylpiperidin-4-yl)methyl)pyridin-2-amine] cannot be ordered by IC50: > 40 µM for the first, > 100 µM for the second.

`CN1CCC(CNc2ccc(CNc3ccnc4c3ccn4C)cn2)CC1` [Example 1225, 1-methyl-N-((6-(((1-methylpiperidin-4-yl)methyl)amino)pyridin-3-yl)methyl)-1H-pyrrolo[2,3-b]pyridin-4-amine] and `CN1CCC(CNc2ccc(CNc3ccnc4c3CC(C)(C)N4)cn2)CC1` [Example 1257, 2,2-dimethyl-N-((6-(((1-methylpiperidin-4-yl)methyl)amino)pyridin-3-yl)methyl)-2,3-dihydro-1H-pyrrolo[2,3-b]pyridin-4-amine] cannot be ordered by IC50: > 100 µM for the first, > 40 µM for the second.

`CN1CCC(CNc2ccc(CNc3cc4c(=O)[nH]ccn4c3)cn2)CC1` [Example 1199, 7-(((6-(((1-methylpiperidin-4-yl)methyl)amino)pyridin-3-yl)methyl)amino)pyrrolo[1,2-a]pyrazin-1(2H)-one] and `Cc1cc(NCc2ccc(NCC3CCN(C)CC3)nc2)c2cc[nH]c2c1` [Example 1215, 6-methyl-N-((6-(((1-methylpiperidin-4-yl)methyl)amino)pyridin-3-yl)methyl)-1H-indol-4-amine] cannot be ordered by IC50: > 100 µM for the first, > 100 µM for the second.

`Nc1ncc(Cl)c2cc(NCc3ccc(N4CCn5nccc5C4)nc3)ccc12` [Example 1157, 4-chloro-N6-((6-(6,7-dihydropyrazolo[1,5-a]pyrazin-5(4H)-yl)pyridin-3-yl)methyl)isoquinoline-1,6-diamine] and `CNC(=O)c1cc(NCc2ccc(NCC3CCN(C)CC3)nc2)cc2ccncc12` [Example 1210, N-methyl-6-(((6-(((1-methylpiperidin-4-yl)methyl)amino)pyridin-3-yl)methyl)amino)isoquinoline-8-carboxamide] cannot be ordered by IC50: > 40 µM for the first, > 100 µM for the second.

`COC(=O)c1cc2c(NCc3ccc(NCC4CCN(C)CC4)nc3)ccnc2[nH]1` [Example 1247, methyl 4-(((6-(((1-methylpiperidin-4-yl)methyl)amino)pyridin-3-yl)methyl)amino)-1H-pyrrolo[2,3-b]pyridine-2-carboxylate] and `CN1CCC(CNc2ccc(CNc3ccnc4[nH]cc(C#N)c34)cn2)CC1` [Example 1221, 4-(((6-(((1-methylpiperidin-4-yl)methyl)amino)pyridin-3-yl)methyl)amino)-1H-pyrrolo[2,3-b]pyridine-3-carbonitrile] cannot be ordered by IC50: > 100 µM for the first, > 100 µM for the second.

`CN1CCC(CNc2ccc(CNc3cc(C(N)=O)nc4[nH]ccc34)cn2)CC1` [Example 1264, 4-(((6-(((1-methylpiperidin-4-yl)methyl)amino)pyridin-3-yl)methyl)amino)-1H-pyrrolo[2,3-b]pyridine-6-carboxamide] and `CN1CCC(CNc2ccc(CNc3ncnc4[nH]ccc34)cn2)CC1` [Example 1227, N-((6-(((1-methylpiperidin-4-yl)methyl)amino)pyridin-3-yl)methyl)-7H-pyrrolo[2,3-d]pyrimidin-4-amine] cannot be ordered by IC50: > 40 µM for the first, > 100 µM for the second.

`CN1CCC(CNc2ccc(CNc3ccc(N(C)C)nn3)cn2)CC1` [Example 1186, N3,N3-dimethyl-N6-((6-(((1-methylpiperidin-4-yl)methyl)amino)pyridin-3-yl)methyl)pyridazine-3,6-diamine] and `CN1CCC(CNc2ccc(CNc3cc(C(=O)O)c4[nH]cc(Cl)c4c3)cn2)CC1` [Example 1204, 3-chloro-5-(((6-(((1-methylpiperidin-4-yl)methyl)amino)pyridin-3-yl)methyl)amino)-1H-indole-7-carboxylic acid] cannot be ordered by IC50: > 100 µM for the first, > 100 µM for the second.

`CNC(=O)c1cc(NCc2ccc(NCC3CCN(C)CC3)nc2)cc2c(Cl)c[nH]c12` [Example 1220, 3-chloro-N-methyl-5-(((6-(((1-methylpiperidin-4-yl)methyl)amino)pyridin-3-yl)methyl)amino)-1H-indole-7-carboxamide] and `CC(=O)c1cncc(NCc2ccnc(OCC3CCN(C)CC3)c2)c1` [Example 4455] cannot be ordered by IC50: > 40 µM for the first, > 100 µM for the second.
